The results in this text go back to ChEMBL document CHEMBL3045211, “Acute and chronic anti-inflammatory evaluation of imidazo[1,2-a]pyridine carboxylic acid derivatives and docking analysis” (Med Chem Res, 2012).

Active and inactive are the calls of the source. The rule behind the calls is not given here.

The target in series [1] is T1, Prostaglandin G/H synthase 1 (Homo sapiens, UniProt P23219). Put plainly: Binding affinity to COX1 (unknown origin).
In series [2] the target is T2, Prostaglandin G/H synthase 2 (Homo sapiens, UniProt P35354).
T2 sequence (P35354 whole entry): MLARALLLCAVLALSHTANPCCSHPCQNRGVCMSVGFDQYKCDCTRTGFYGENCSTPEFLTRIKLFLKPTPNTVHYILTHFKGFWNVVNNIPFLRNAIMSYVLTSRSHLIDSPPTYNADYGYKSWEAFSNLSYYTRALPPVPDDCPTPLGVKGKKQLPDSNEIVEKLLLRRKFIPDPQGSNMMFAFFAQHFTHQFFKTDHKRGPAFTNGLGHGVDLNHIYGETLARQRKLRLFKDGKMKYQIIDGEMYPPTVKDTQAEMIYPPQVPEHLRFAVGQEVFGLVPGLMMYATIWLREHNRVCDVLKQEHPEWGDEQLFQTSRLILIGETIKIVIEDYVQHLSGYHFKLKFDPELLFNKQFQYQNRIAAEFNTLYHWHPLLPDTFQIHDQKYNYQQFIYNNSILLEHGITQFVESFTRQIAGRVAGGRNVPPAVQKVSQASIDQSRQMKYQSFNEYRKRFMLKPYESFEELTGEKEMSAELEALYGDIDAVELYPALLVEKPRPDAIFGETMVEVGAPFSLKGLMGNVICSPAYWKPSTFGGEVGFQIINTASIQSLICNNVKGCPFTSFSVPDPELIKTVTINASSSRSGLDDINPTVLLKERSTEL
Put plainly: Binding affinity to COX2 (unknown origin).

The species named for series [3] is Rattus norvegicus. Put plainly: Toxicity in Rattus norvegicus Wistar (rat). The note with it: in vivo. Type of series: organism-based.
The test system of series [4] is Rattus norvegicus. Put plainly: Anti-inflammatory activity in Rattus norvegicus Wistar (rat) assessed as inhibition of carrageenan-induced paw edema at 10 mg/kg administered for 1 hr followed by carrageenan challenge measured at 4 hr relative to control. It counts as functional.
Series [5] concerns Rattus norvegicus. Put plainly: Anti-inflammatory activity in Rattus norvegicus Wistar (rat) assessed as inhibition of carrageenan-induced paw edema at 10 mg/kg administered for 1 hr followed by carrageenan challenge measured at 3 hr relative to control. Type of series: functional.
Series [6] deals with Rattus norvegicus. Put plainly: Anti-inflammatory activity in Rattus norvegicus Wistar (rat) assessed as inhibition of carrageenan-induced paw edema at 10 mg/kg administered for 1 hr followed by carrageenan challenge measured at 2 hr relative to control. It counts as functional.
Series [7] relates to Rattus norvegicus. Put plainly: Anti-inflammatory activity in Rattus norvegicus Wistar (rat) assessed as inhibition of carrageenan-induced paw edema at 10 mg/kg administered for 1 hr followed by carrageenan challenge measured at 1 hr relative to control. It counts as functional.
Series [8] addresses T1, Prostaglandin G/H synthase 1. Put plainly: Inhibition of COX1 (unknown origin).
Series [9] has as its system Rattus norvegicus. Put plainly: Anti-inflammatory activity in Rattus norvegicus Wistar (rat) assessed as decrease in cotton pellet-induced dry granuloma weight at 10 mg/kg, po administered for 7 days measured on day 8. Type of series: functional, organism-based. More on the design: dose 10 mg/kg.
In series [10] the test system is Rattus norvegicus. Put plainly: Anti-inflammatory activity in Rattus norvegicus Wistar (rat) assessed as decrease in cotton pellet-induced wet granuloma weight at 10 mg/kg, po administered for 7 days measured on day 8. It counts as functional, organism-based. More on the design: dose 10 mg/kg.
Series [11] concerns Rattus norvegicus. Put plainly: Anti-inflammatory activity in Rattus norvegicus Wistar (rat) assessed as decrease in cotton pellet-induced final granuloma weight at 10 mg/kg, po administered for 7 days measured on day 8. More on the design: dose 10 mg/kg. It counts as functional, organism-based.
Series [12] addresses T1, Prostaglandin G/H synthase 1. Put plainly: Inhibition of COX1 (unknown origin) at 1 uM.
Series [13] has as its system Rattus norvegicus. Put plainly: Gastrointestinal toxicity in Rattus norvegicus Wistar (rat) stomach assessed as appearance of redness at 5 mg/kg, po relative to vehicle-treated control. It counts as organism-based. More on the design: dose 5 mg/kg, route oral. The note with it: in vivo.
The test system of series [14] is Rattus norvegicus. Put plainly: Anti-inflammatory activity in Rattus norvegicus Wistar (rat) assessed as inhibition of carrageenan-induced paw edema administered for 1 hr followed by carrageenan challenge measured at 2 hr relative to control. Type of series: functional.
For series [15], the system named is Rattus norvegicus. Put plainly: Toxicity in Rattus norvegicus Wistar (rat) assessed as mortality at 5 mg/kg, po administered for 7 days measured on day 8. Type of series: organism-based. Further details: dose 5 mg/kg, route oral. The note with it: in vivo, 168 h.
Series [16] has as its system Rattus norvegicus. Put plainly: Anti-inflammatory activity in Rattus norvegicus Wistar (rat) assessed as inhibition of carrageenan-induced paw edema administered for 1 hr followed by carrageenan challenge measured at 1 hr relative to control. Type of series: functional.
Series [17] concerns Rattus norvegicus. Put plainly: Anti-inflammatory activity in Rattus norvegicus Wistar (rat) assessed as inhibition of carrageenan-induced paw edema administered for 1 hr followed by carrageenan challenge measured at 3 hr relative to control. It counts as functional.
Series [18] relates to Rattus norvegicus. Put plainly: Ulcerogenic activity in Rattus norvegicus Wistar (rat) stomach at 5 mg/kg, po relative to vehicle-treated control. Type of series: toxicity, organism-based. Further details: dose 5 mg/kg, route oral. The note with it: in vivo.
Series [19] has as its system Rattus norvegicus. Put plainly: Anti-inflammatory activity in Rattus norvegicus Wistar (rat) assessed as inhibition of carrageenan-induced paw edema administered for 1 hr followed by carrageenan challenge measured at 4 hr relative to control. It counts as functional.
In series [20] the test system is Rattus norvegicus. Put plainly: Gastrointestinal toxicity in Rattus norvegicus Wistar (rat) duodenum assessed as appearance of redness at 5 mg/kg, po relative to vehicle-treated control. It counts as organism-based. Further details: dose 5 mg/kg, route oral. The following applies: in vivo.
The test system of series [21] is Rattus norvegicus. Put plainly: Anti-inflammatory activity in Rattus norvegicus Wistar (rat) assessed as cotton pellet-induced final granuloma weight at 5 mg/kg, po administered for 7 days measured on day 8 (reference value: 110.3 +/- 8.7 mg). It counts as functional.
In series [22] the test system is Rattus norvegicus. Put plainly: Gastrointestinal toxicity in Rattus norvegicus Wistar (rat) duodenum assessed as appearance of redness at 10 mg/kg, po relative to vehicle-treated control. Type of series: organism-based. Further details: dose 10 mg/kg, route oral. The following applies: in vivo.
For series [23], the target named is T3, Prostaglandin G/H synthase 2 (Homo sapiens) (UniProt P35354).
T3 sequence (whole entry): T2 sequence (P35354 whole entry)
Put plainly: Inhibition of COX2 (unknown origin) at 10 uM.

Series [24] deals with Rattus norvegicus. Put plainly: Gastrointestinal toxicity in Rattus norvegicus Wistar (rat) stomach assessed as appearance of redness at 10 mg/kg, po relative to vehicle-treated control. Type of series: organism-based. Further details: dose 10 mg/kg, route oral. The following applies: in vivo.
Series [25] deals with Rattus norvegicus. Put plainly: Ulcerogenic activity in Rattus norvegicus Wistar (rat) stomach at 10 mg/kg, po relative to vehicle-treated control. Type of series: toxicity, organism-based. Further details: dose 10 mg/kg, route oral. The following applies: in vivo.
Series [26] relates to Rattus norvegicus. Put plainly: Anti-inflammatory activity in Rattus norvegicus Wistar (rat) assessed as cotton pellet-induced final granuloma weight at 10 mg/kg, po administered for 7 days measured on day 8 (reference value: 110.3 +/- 8.7 mg). It counts as functional.

T1 sequence (P23219 whole entry): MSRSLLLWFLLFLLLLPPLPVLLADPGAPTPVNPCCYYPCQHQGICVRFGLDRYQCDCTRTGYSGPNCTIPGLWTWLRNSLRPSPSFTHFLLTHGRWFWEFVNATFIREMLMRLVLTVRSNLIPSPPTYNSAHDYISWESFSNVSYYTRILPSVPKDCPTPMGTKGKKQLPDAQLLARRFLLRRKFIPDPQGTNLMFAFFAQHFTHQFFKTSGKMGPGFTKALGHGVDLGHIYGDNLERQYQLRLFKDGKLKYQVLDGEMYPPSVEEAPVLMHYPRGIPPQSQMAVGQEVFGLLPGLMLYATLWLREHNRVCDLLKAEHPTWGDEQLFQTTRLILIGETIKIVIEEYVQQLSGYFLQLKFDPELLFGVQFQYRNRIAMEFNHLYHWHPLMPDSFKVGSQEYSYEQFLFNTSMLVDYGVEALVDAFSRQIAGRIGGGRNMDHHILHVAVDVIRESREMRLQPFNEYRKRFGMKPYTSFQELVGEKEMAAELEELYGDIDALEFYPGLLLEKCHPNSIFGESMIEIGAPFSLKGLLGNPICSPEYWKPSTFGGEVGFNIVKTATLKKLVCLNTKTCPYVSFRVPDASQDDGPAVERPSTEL

Take `CC(C(=O)O)c1ccc(-c2cn3ccccc3n2)cc1` (stereo unspecified) [MIROPROFEN]: the Kd in series [1] amounted to 185 nM; in series [2], 48.1 nM.
In turn, `CCOC(=O)c1nc2ccccn2c1[N+](=O)[O-]` returned an LD in the series listed under Rattus norvegicus [3] of 1000 mg/kg. The Kd in [1] was 1040 nM; in series [2], 227 nM. The inhibition in vivo at 10 mg/kg in the series with Rattus norvegicus [4] stood at 14.2%; in the series on Rattus norvegicus [5], 25.4%; with Rattus norvegicus [6], 43.1%; with Rattus norvegicus [7], 54.2%. Also, the inhibition result in [8] is “inactive”.
As to `O=C(O)c1cn2ccccc2n1`, the LD in the series listed under Rattus norvegicus [3] was 1000 mg/kg. Moreover, the result with Rattus norvegicus [9], in the series on Rattus norvegicus [10] and in the series with Rattus norvegicus [11] was Active. The dissociation constant (Kd) in series [1] was found to be 1540 nM; in [2], 652 nM. Besides, the inhibition in vivo at 10 mg/kg turned out to be 74% in the series on Rattus norvegicus [4], 69.4% in the series with Rattus norvegicus [5], 62.5% in the series with Rattus norvegicus [6] and 75.6% in the series with Rattus norvegicus [7]. Besides, the inhibition in series [12] came to 15.6%.
Molecule `O=C(O)c1nc2ccccn2c1[N+](=O)[O-]` came in with an LD in the series listed under Rattus norvegicus [3] of 1000 mg/kg. The result with Rattus norvegicus [9], with Rattus norvegicus [10] and in the series with Rattus norvegicus [11] was Active. Besides, the values for the Kd in [1] and in [2] were 15.6 nM and 50.1 nM, respectively. Besides, the inhibition in vivo at 10 mg/kg came out at 14.2% with Rattus norvegicus [4], 24.4% in the series on Rattus norvegicus [5], 43.5% in the series on Rattus norvegicus [6] and 57.2% in the series with Rattus norvegicus [7]. In series [8], the inhibition result is “inactive”.
Regarding `COc1ccc2c(c1)c(CC(=O)O)c(C)n2C(=O)c1ccc(Cl)cc1` [INDOMETHACIN], the Activity entry in the series with Rattus norvegicus [13] was “Toxic”; in the series on Rattus norvegicus [15] it was “Toxic”; with Rattus norvegicus [18], “Toxic”; in the series with Rattus norvegicus [20], “Toxic”; in the series with Rattus norvegicus [21] it was 42.3 mg. Moreover, the “inhibition (INH)” value in the series with Rattus norvegicus [14] worked out at 65.5%; with Rattus norvegicus [16] it was 62.6%; in the series with Rattus norvegicus [17] it was 77.3%; in the series on Rattus norvegicus [19], 74.6%.
With `Nc1c(C(=O)O)nc2ccccn12`, the LD in the series listed under Rattus norvegicus [3] came to 1000 mg/kg. Moreover, the result with Rattus norvegicus [9] and in the series on Rattus norvegicus [10] was Active. Moreover, the Kd was 262 nM in series [1] and 448 nM in [2]. For the same molecule, the inhibition in vivo at 10 mg/kg is 73.2% with Rattus norvegicus [4], 80.3% with Rattus norvegicus [5], 76.7% with Rattus norvegicus [6] and 61.3% in the series with Rattus norvegicus [7]. For the same molecule, the Activity result in the series with Rattus norvegicus [22] was “Non-toxic”; in the series with Rattus norvegicus [24], “Non-toxic”; in the series with Rattus norvegicus [25] it was “Non-toxic”; in the series on Rattus norvegicus [26] it was 70.5 mg. In series [23], this molecule registered an inhibition of 20%. Moreover, the inhibition result in [8] is “inactive”.
